Measurements: article PMC6208296, “Redox regulation of pyruvate kinase M2 by cysteine oxidation and S-nitrosation” (Biochemical Journal, 2018)
Read-outs that look alike come from different tables or passages of the source. Each block holds one compound with its values, some of them ahead of it.

Tests used:
Format in all cases: biochemical
M2PYK [1] = target: T1, M2PYK (Homo sapiens, UniProt P14618); assay: enzyme activity assay, competition of activator Ser with inhibitors Ala and Phe
T1 construct: gene PKM; recombinant His-tagged WT M2 isoform
T1 sequence (P14618 2-531): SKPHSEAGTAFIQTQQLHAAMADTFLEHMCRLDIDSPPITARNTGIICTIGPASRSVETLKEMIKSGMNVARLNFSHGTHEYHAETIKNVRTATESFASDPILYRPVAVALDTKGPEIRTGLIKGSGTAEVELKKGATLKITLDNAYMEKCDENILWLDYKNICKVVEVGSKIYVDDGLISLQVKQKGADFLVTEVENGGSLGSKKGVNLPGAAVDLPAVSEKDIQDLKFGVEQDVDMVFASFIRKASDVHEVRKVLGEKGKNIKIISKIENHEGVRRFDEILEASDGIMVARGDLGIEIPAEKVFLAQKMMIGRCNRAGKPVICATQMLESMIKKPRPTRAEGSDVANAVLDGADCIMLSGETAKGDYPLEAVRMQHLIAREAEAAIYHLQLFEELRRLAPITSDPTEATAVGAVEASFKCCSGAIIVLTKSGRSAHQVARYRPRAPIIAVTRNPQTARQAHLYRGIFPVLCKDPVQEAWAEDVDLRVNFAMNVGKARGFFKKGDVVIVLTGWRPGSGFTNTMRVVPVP

M2PYK [2] = target: T1, M2PYK; assay: LDH-coupled enzyme assay with and without F-1,6-BP; protection from S-nitrosation (biotin switch)
M2PYK [3] = target: T1, M2PYK; assay: PYK enzyme activity assay, dose response with and without DTT and Ser

Compound: N[C@@H](CO)C(=O)O [Ser]
- enzyme activity assay, competition of activator Ser with inhibitors Ala and Phe (M2PYK [1]): Increasing Ser concentration further reduces the inhibitory effect of Ala which is expected as Ala and Ser compete

Compound: O=P(O)(O)OC[C@H]1OC(O)(COP(=O)(O)O)[C@@H](O)[C@@H]1O (stereo partly shown) [fructose 1,6-bisphosphate]
- LDH-coupled enzyme assay with and without F-1,6-BP; protection from S-nitrosatio (M2PYK [2]): M2PYK complexes with FBP and Phe stabilise M2PYK in a tetrameric state and reduce the amount of nitrosation

- IC50 (M2PYK [3]; read-out: IC50): 45 µM
Compound: C[C@H](N)C(=O)O [L-alanine]

Compound: N[C@@H](Cc1ccccc1)C(=O)O [L-phenylalanine]
- IC50 (M2PYK [3]): 57 µM
